The supplement of paper PMC10307832

Legend:
Test in all cases: relative viability (nuclei count vs DMSO), 5 days (fraction); higher = more cells survive
[1] = compound: Cc1cnc(CNC(=O)c2c(=O)c3ccc(N4CCCN(C)CC4)nc3n3c2sc2ccccc23)cn1 [CX-5461] + N=C(N)NC(=N)NCCc1ccccc1 [Phenformin] (partner 250 µM)
How it was run: (§1)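 Cells from lung cancer lines were seeded into 1536-well plates and, one day later, dosed by pin tool. Treatments were either a single drug or a fixed dose of an anchor drug with five library-drug doses (not always all listed) in √10 steps. After 5 days, nuclei were stained in a one-step fixation (final 0.05% Triton X-100, 1% formaldehyde, 1 ug/ml Hoechst) and counted on 4× images, and relative viability is the treated-to-vehicle nuclei ratio, as the median of duplicate plates.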

[2] = compound: Cc1cnc(CNC(=O)c2c(=O)c3ccc(N4CCCN(C)CC4)nc3n3c2sc2ccccc23)cn1 [CX-5461] + CC(=O)Nc1cccc(-n2c(=O)n(C3CC3)c(=O)c3c(Nc4ccc(I)cc4F)n(C)c(=O)c(C)c32)c1 [Trametinib] (partner 0.02 µM)
How it was run: as §1

[3] = compound: O=C(Nc1cc(C(F)(F)F)cc(C(F)(F)F)c1)c1cc(Cl)ccc1O [IMD-0354] + CC1(C)CCC(c2ccc(Cl)cc2)=C(CN2CCN(c3ccc(C(=O)NS(=O)(=O)c4ccc(N[C@H](CCN5CCOCC5)CSc5ccccc5)c(S(=O)(=O)C(F)(F)F)c4)cc3)CC2)C1 [Navitoclax] (partner 0.5 µM)
How it was run: as §1

[4] = compound: Cc1cnc(CNC(=O)c2c(=O)c3ccc(N4CCCN(C)CC4)nc3n3c2sc2ccccc23)cn1 [CX-5461] + Nc1ncn([C@H]2C[C@H](O)[C@@H](CO)O2)c(=O)n1 [Decitabine] (partner 2 µM)
How it was run: as §1

Cell Line | relative viability ([1]; first compound 0.01 µM) | relative viability ([1]; first compound 0.03162 µM) | relative viability ([1]; first compound 0.1 µM) | relative viability ([1]; first compound 0.3162 µM) | relative viability ([1]; first compound 1 µM) | relative viability ([2]; first compound 0.01 µM) | relative viability ([2]; first compound 0.03162 µM) | relative viability ([2]; first compound 0.1 µM) | relative viability ([2]; first compound 0.3162 µM) | relative viability ([2]; first compound 1 µM) | relative viability ([3]; first compound 0.04 µM) | relative viability ([3]; first compound 0.1265 µM) | relative viability ([3]; first compound 0.4 µM) | relative viability ([3]; first compound 1.265 µM) | relative viability ([3]; first compound 4 µM) | relative viability ([4]; first compound 0.01 µM) | relative viability ([4]; first compound 0.03162 µM) | relative viability ([4]; first compound 0.1 µM) | relative viability ([4]; first compound 0.3162 µM) | relative viability ([4]; first compound 1 µM)
CAL-12T | 0.643 | 0.653 | 0.328 | 0.531 | 0.35 | 0.367 | 0.297 | 0.302 | 0.344 | 0.181 | 1.33 | 1.08 | 0.629 | 0.358 | 0.156 |  |  |  |  | 
RERF-LC-KJ | 0.448 | 0.457 | 0.292 | 0.41 | 0.386 | 0.853 | 0.908 | 0.694 | 0.89 | 0.644 | 0.843 | 1.1 | 0.496 | 0.109 | 0.228 | 0.686 | 0.677 | 0.381 | 0.528 | 0.41
NCI-H1650 | 0.409 | 0.275 | 0.191 | 0.33 | 0.148 | 0.564 | 0.447 | 0.532 | 0.678 | 0.207 | 1.42 | 1.06 | 0.682 | 0.149 | 0.171 | 0.395 | 0.441 | 0.344 | 0.378 | 0.207
BEN | 0.28 | 0.263 | 0.253 | 0.28 | 0.268 | 0.936 | 0.96 | 1.11 | 1.17 | 1.04 | 0.0569 | 0.0541 | 0.0659 | 0.0403 | 0.0444 | 0.757 | 0.706 | 0.711 | 0.652 | 0.545
EMC-BAC-2 | 0.507 | 0.518 | 0.399 | 0.299 | 0.271 | 0.91 | 0.888 | 0.629 | 0.45 | 0.429 | 1.2 | 1.17 | 0.617 | 0.977 | 0.219 | 0.97 | 0.994 | 0.709 | 0.655 | 0.473
LU99A | 0.911 | 0.855 | 0.821 | 0.528 | 0.21 | 0.596 | 0.488 | 0.477 | 0.389 | 0.634 | 0.644 | 0.808 | 0.654 | 0.479 | 0.148 | 0.925 | 0.958 | 0.923 | 0.594 | 0.79
ABC-1 | 0.23 | 0.212 | 0.213 |  | 0.212 |  |  |  |  |  |  |  |  |  |  | 0.971 |  | 1.38 | 0.429 | 0.96
NCI-H358 | 0.349 | 0.347 | 0.316 | 0.236 | 0.148 | 0.125 | 0.108 | 0.0974 | 0.102 | 0.0846 |  |  |  |  |  | 0.206 | 0.195 | 0.151 | 0.149 | 0.121
